Test results taken from patent publication US10450585B2, “Delivery methods and compositions for nuclease-mediated genome engineering” (Sangamo Therapeutics, Inc., priority 2015, dated 2019).

Columns and labels:
[1] = system: Hep3B (human hepatoma cell line) cells; assay: AAV2/6 delivery of albumin ZFNs to Hep3B cells after growth factor receptor inhibitor pre-incubation; % indels by deep sequencing; type: cell-based; conditions: serum-free pre-incubation, AAV2/6 albumin ZFNs MOI 3e4 vg/cell
Procedure: In order to test the relative contribution of co-receptors to AAV transduction, inhibitors against epidermal growth factor receptor (EGFR), hepatocyte growth factor receptor (HGFR), fibroblast growth factor receptor (FGFR) and platelet-derived growth factor receptor (PDGFR) were used prior to in vitro AAV2/6 transduction experiments in Hep3B (human hepatoma cell line) cells using zinc-finger nucleases (ZFNs) targeting the human albumin locus. Hep3B cells were plated at a density of 1×10^5 cells per well in a 48-well tissue culture plate in 300 μL complete growth media the day before transduction with AAV2/6. On the morning of transduction, the cells were washed three times with serum-free media and incubated in the serum-free media for three hours. Growth factor receptor inhibitors were added to the wells and incubated for one hour. AAV2/6 particles to deliver ZFNs targeted to the albumin locus were then added to the wells. After three hours, serum was added to the wells to a final concentration of 10%. The cells were harvested on day 4 post-transduction. Genomic DNA was extracted and analyzed by deep sequencing (MiSeq) at the albumin locus. The growth factor receptor inhibitors used are shown below in Table 1, and they were used in the experiment in the concentrations indicated in FIG. 3, where each inhibitor is labeled by its target.

[2] = system: human patient-derived primary hepatocytes; assay: AAV2/6 ZFN transduction of primary hepatocytes with PDGFR inhibitor; % indels; type: cell-based; conditions: 9 μM
Procedure: For human hepatocytes, 48-well cell culture dishes were purchased pre-coated with collagen (Life Technologies). Plates were incubated for 1 hour at 37° C. Thawing/plating media was prepared by combining 18 mL InVitroGRO CP medium (BioreclamationIVT) and 400 μL Torpedo antibiotic mix (Celsis In Vitro Technologies). Once the plates were prepared, the plate-able human hepatocytes (Lot# AKB), were transferred from the liquid nitrogen vapor phase directly into the 37° C. water bath and thawed under gently stirring. The cells were transferred directly into a 50 ml conical tube containing 5 mL of pre-warmed thawing/plating medium. To retrieve all the cells, the vial was washed with 1 mL of thawing/plating medium, which was added to the cells. Following resuspension of the cells, a small aliquot (20 μL) was removed to perform a cell count and to determine cell viability using trypan blue solution (1:5; Corning, Cat#25-900-C1). The cells were then centrifuged at 75×g for 5 minutes, the supernatant was removed and the cells were resuspended at 1e6 cells/mL. Cells were seeded at 3e5 cells/well in the coated 48-well plates. Cells were then incubated in a 37° C./5% CO2 incubator.
One day after the cells were plated, cells were switched to HCM maintenance medium (Lonza, HBM and HCM SingleQuots). […] Genomic DNA was extracted and analyzed by deep sequencing (MiSeq) at the albumin locus.

| Structure (SMILES) | AAV transduction compared to control (% indels) [1] | indels detected as compared to no inhibitor [2] |
| --- | --- | --- |
| Cc1[nH]c(/C=C2\C(=O)Nc3ccc(S(=O)(=O)N(C)c4cccc(Cl)c4)cc32)c(C)c1C(=O)N1CCN(C)CC1 [HGFRi, SU11274] | mild stimulation |  |
| CC1(COc2ccc3c(c2)ncn3-c2ccc3cccc(N4CCC(N)CC4)c3n2)COC1 [Crenolanib] |  | large increase |
| CCN1CCN(c2ccc(Nc3cc(N(C)C(=O)Nc4c(Cl)c(OC)cc(OC)c4Cl)ncn3)cc2)CC1 [FGFRi, BGJ398] | mild stimulation |  |
| COc1cc2ncnc(Nc3ccc(F)c(Cl)c3)c2cc1OCCCN1CCOCC1 [EGFRi, Gefitinib] | mild inhibition |  |
